# From patent US8372865B2, “Dihydropyridone amides as P2X7 modulators” (Roche Palo Alto LLC, priority 2008, dated 2013)
# Molecular target: T1, P2X7 receptor (UniProt Q99572)
# T1 sequence (Q99572 1-595): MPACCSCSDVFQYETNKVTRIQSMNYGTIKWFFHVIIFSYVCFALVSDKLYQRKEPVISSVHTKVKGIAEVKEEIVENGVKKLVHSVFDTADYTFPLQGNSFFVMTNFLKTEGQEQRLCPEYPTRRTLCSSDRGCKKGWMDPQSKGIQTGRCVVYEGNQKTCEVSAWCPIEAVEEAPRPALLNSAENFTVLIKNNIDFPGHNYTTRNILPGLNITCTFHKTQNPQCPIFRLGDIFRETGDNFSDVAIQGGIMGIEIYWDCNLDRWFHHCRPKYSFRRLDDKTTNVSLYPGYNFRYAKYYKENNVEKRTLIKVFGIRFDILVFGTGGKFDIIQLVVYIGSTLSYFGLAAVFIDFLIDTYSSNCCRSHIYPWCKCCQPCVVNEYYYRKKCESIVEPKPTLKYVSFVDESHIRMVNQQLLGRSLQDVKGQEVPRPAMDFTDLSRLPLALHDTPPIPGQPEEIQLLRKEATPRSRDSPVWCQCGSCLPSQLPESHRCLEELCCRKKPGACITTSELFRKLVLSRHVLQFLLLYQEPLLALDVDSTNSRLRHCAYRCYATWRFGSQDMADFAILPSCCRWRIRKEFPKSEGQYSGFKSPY
# Test: pKi of Table 1 (assay not stated)
# Type: cell-based
# Experimental: Intracellular Calcium Flux (FLIPR) Assay
# Stock solutions of compounds were prepared from powders as a 10 mM DMSO stock solution. These solutions were stored at RT during the two week period of these experiments to prevent freeze-thaw of the DMSO stocks. The DMSO stocks were added to the appropriate assay buffer at a concentration of 10 μM, and then diluted serially to the final concentrations that were tested. […] The aqueous solutions of compounds as well as ATP (Sigma A7699) and BzATP (Sigma B6396) were prepared fresh for each day of experiment.
# 1321N1 cells stably expressing the full length human P2X7 gene (1321N1-hP2X7) and HEK293 cells stably expressing the full length rat P2X7 gene (HEK293-rP2X7) were obtained from the Roche Cell Culture Facility. 1321N1-hP2X7 cells were grown in Dulbecco's Modified Eagle's Medium (DMEM) high glucose supplemented with 10% FBS and 250 μg/mL G418. HEK293-rP2X7 cells were grown in DMEM/F-12 supplemented with 10% FBS, 1 mM CaCl2, 2 mM MgCl2, 2 mM L-Glutamine and 500 μg/ml G418. Cells were split such that they never became>70% confluent.
# On the day prior to the experiment, 1321N1-hP2X7 or HEK293-rP2X7 cells were released into suspension with calcium-free PBS+Versene and washed by centrifugation with calcium-free PBS to remove the Versene. Cells were resuspended in growth medium at a density of 2.5×10^5 cells/mL and seeded into black walled, clear bottom 96 well plates (50,000 cells/well) approximately 18 hr prior to intracellular calcium flux experiments.
# On the day of the experiment, plates were washed with FLIPR buffer (calcium- and magnesium-free Hank's Balanced Salt Solution (HBSS) supplemented with 10 mM Hepes, 2.5 mM probenecid and 2 mM calcium chloride) using a BIO-TEK 96 channel plate washer and incubated with […] fluo-3 dye at 37° C. for one hr. The dye was then removed by plate washing and the cells were allowed to equilibrate for 20 min at room temperature with antagonist or vehicle (FLIPR buffer). Agonist (100 μM BzATP final concentration for hP2X7; 5 μM BzATP final concentration or rP2X7) was added online with the FLIPR and fluorescence measurements made at 1 sec intervals for 60 sec followed by 3 sec intervals for a further 4 min (5 min total). A final addition of 5 μM ionomycin was made and the maximal BzATP-evoked fluorescence normalized to the maximal ionomycin-evoked fluorescence.
row,Compound,pKi
1,"Cc1cc2c(NC(=O)C3=CNC(=O)C[C@H]3c3ccc(F)cc3)cccc2nn1 [Compound 48, (S)-4-(4-Fluoro-phenyl)-6-oxo-1,4,5,6-tetrahydro-pyridine-3-carboxylic acid (3-methyl-cinnolin-5-yl)-amide]",5.425
2,"Cc1ccc2c(NC(=O)C3=CNC(=O)C[C@H]3c3ccc(F)cc3)c(C)ccc2n1 [Compound 49, (S)-4-(4-Fluoro-phenyl)-6-oxo-1,4,5,6-tetrahydro-pyridine-3-carboxylic acid (2,6-dimethyl-quinolin-5-yl)-amide]",7.8567
3,"CN1C=C(C(=O)Nc2cccc3c(=O)n(CCO)ccc23)[C@H](c2ccc(F)cc2)CC1=O [Compound 50, (S)-4-(4-Fluoro-phenyl)-1-methyl-6-oxo-1,4,5,6-tetrahydro-pyridine-3-carboxylic acid [2-(2-hydroxy-ethyl)-1-oxo-1,2-dihydro-isoquinolin-5-yl]-amide]",7.04

# Second part, the compound after the results:
row,pKi,Compound
1,7.4375,"Cc1ccc2c(=O)n(C)ccc2c1NC(=O)C1=CNC(=O)C[C@H]1c1ccc(F)cc1 [Compound 51, (S)-4-(4-Fluoro-phenyl)-6-oxo-1,4,5,6-tetrahydro-pyridine-3-carboxylic acid (2,6-dimethyl-1-oxo-1,2-dihydro-isoquinolin-5-yl)-amide]"
2,7.45,"Cc1ccc2c(=O)n(C)ccc2c1NC(=O)C1=CN(C)C(=O)C[C@H]1c1ccc(F)cc1 [Compound 52, (S)-4-(4-Fluoro-phenyl)-1-methyl-6-oxo-1,4,5,6-tetrahydro-pyridine-3-carboxylic acid (2,6-dimethyl-1-oxo-1,2-dihydro-isoquinolin-5-yl)-amide]"
3,6.045,"Cc1ccc2c(C)nccc2c1NC(=O)C1=CN(C)C(=O)C[C@H]1c1ccc(F)cc1 [Compound 53, (S)-4-(4-Fluoro-phenyl)-1-methyl-6-oxo-1,4,5,6-tetrahydro-pyridine-3-carboxylic acid (1,6-dimethyl-isoquinolin-5-yl)-amide]"
4,7.56,"Cn1ccc2c(NC(=O)C3=CNC(=O)C[C@H]3c3ccc(F)cc3)cccc2c1=O [Compound 58, (S)-4-(4-Fluoro-phenyl)-6-oxo-1,4,5,6-tetrahydro-pyridine-3-carboxylic acid (2-methyl-1-oxo-1,2-dihydro-isoquinolin-5-yl)-amide]"
